In PMC12646544, “Bioremediation of acetamiprid and sulfoxaflor co-contamination by Ensifer sp. DA6 and characterization of a novel nitrile hydratase involved” (Frontiers in Microbiology, 2025):

Test system: T1, Ensifer sp. DA6 NHase
T1 construct: gene nthA; NHase gene cluster (alpha, beta, accessory) in pET28a, E. coli Rosetta (DE3), N-terminal 6xHis-tag, Ni-NTA purified; cobalt type; accessory protein not detected on SDS-PAGE; forward primer encodes MSEHHHG; alpha motif VCTLCSC; with Nitrile hydratase accessory protein
Experiment: HPLC, Michaelis-Menten non-linear regression
Format: biochemical
Settings: 50 mmol/L PBS pH 7.0, 45 °C, cobalt enzyme, 25-1,000 mg/L substrate
Text: HPLC, Michaelis-Menten non-linear regression on Ensifer sp.

`C/C(=N\C#N)N(C)Cc1ccc(Cl)nc1` [ACE, N-[(6-chloro-3-pyridyl)methyl]-N′-cyano-N-methylacetamidine] showed a Km (60 min) of 8.16 mM.

`CC(c1ccc(C(F)(F)F)nc1)S(C)(=O)=NC#N` (centres unmarked) [SUL, [N-(methyloxido{1-[6-(trifluoromethyl)-3-pyridinyl]ethyl}-λ^4-sulfanylidene)cyanamide]] showed a Km (30 min, stereoisomer mixture) of 7.93 mM.
